{"source": "patent US20260125374A1", "about": "“PI3K-ALPHA INHIBITORS AND METHODS OF MAKING AND USING THE SAME” (Relay Therapeutics, Inc., priority 2021, published 2026)", "type_in_all_cases": "physicochemical", "key": {"[1]": {"assay": "Investigation of I-3 Form A in different humidity (VH-XRPD, humidity chamber)", "conditions": "for form after humidity chamber (XRPD): 1 week", "method": "According to the DVS result of I-3 Form A, two hydrate forms (a mono-hydrate, and a bis-hydrate) may exist when relative humidity is above 50% RH. Variable humidity XRPD (VH-XRPD) was investigated attempting to capture the potential hydrate(s).\nTo further evaluate form conversion of I-3 Form A, this salt was placed in different humidity (30% RH, 40% RH and 50% RH) chambers for 1 week.\nI-3 Form A was used as starting material. One RH cycle was applied at 25° C. XRPD analysis was carried out in each specific relative humidity. Cycle: 39% RH (initial)-10% RH (2h)-40% RH (2h)-50% RH (2h)-70% RH (2h). Meanwhile, I-3 Form A was exposed to 30% RH, 40% RH and 50% RH chamber for 1 week. Samples were analyzed by XRPD using air tight container."}, "[2]": {"assay": "Stability of I-1 solution during concentration (pH, temperature; chiral purity)", "conditions": "for ee % before concentration: starting value before stirring; for ee % of the product after stirring: from 98.20%", "method": "To study the chiral stability of product I-1 during concentration, three batches I-1 from Prep-HPLC was tried under different conditions: 1) The ee % of the product changes from 98.20% to 78.95% after stirring over 18 h at 45-50° C. with pH 6-7. 2) The ee % of the product changes from 98.20% to 97.64% after stirring over 18 h at 20-25° C. with pH 6-7. 3) The ee % of the product changes from 98.20% to 98.15% after stirring over 18 h at 45-50° C. with pH 5-6.\nTwo reactions at 0.5 g I-1 (after SFC preparation) were carried out for stability study. 1) Compound is stable after stirring over 20 h at 10-20° C. with pH 4. 2) The ee % of this compound change from 98.43% to 98.16% after stirring over 20 h at 40-50° C. with pH 4."}, "[3]": {"assay": "Stability of III-1 & I-1 solid", "conditions": "after 55 days; initial 99.2%"}, "[4]": {"assay": "Grinding simulation experiments", "method": "About 50 mg of I-1 Form A was ground manually with a mortar and pestle for 1, 3 and 5 min. Form transformation and degree of crystallinity was evaluated by XRPD.\nAbout 50 mg of Form A was ground manually with a mortar and pestle for 1, 3 and 5 min. Form transformation and degree of crystallinity was evaluated by XRPD."}, "[5]": {"assay": "Light impact on chiral purity", "method": "Four reactions were carried out to study the impact of light on chiral purity under neutral and basic condition."}, "[6]": {"assay": "Granulation simulation experiments", "method": "(§1) Ethanol (without pretreatment by molecular sieve) and pure water were added drop wise to about 20 mg of I-1 Form A separately until solid is wetted sufficiently. Manually grind the samples with a mortar and pestle for about 5 min. Samples were dried under ambient condition for 10 min. Form transformation and degree of crystallinity were evaluated by XRPD.\nas §1, with “of” for “of I-1”"}}, "data": [{"smiles": "N#Cc1c(-c2cc(NC(=O)c3cc(F)cc(C(F)(F)F)c3)c3c(c2)C(=O)N[C@H]3c2cc(F)ccc2Cl)ccc2ncnn12", "note": "[Compound I-3]", "values": [{"measurement": "form after humidity chamber (XRPD)", "setting": "[1]; 30% RH", "result": "additional peaks belongs to Form B"}, {"measurement": "form after humidity chamber (XRPD)", "setting": "[1]; 40% RH and 50% RH", "result": "converted to I-3 Form B"}, {"measurement": "I-3 Form B pattern in VH-XRPD", "setting": "[1]; 50% RH, 25° C.", "result": "started to show up"}, {"measurement": "form by VH-XRPD", "setting": "[1]; 70% RH, 25° C.", "result": "fully converted to a new form, I-3 Form B"}, {"measurement": "XRPD", "setting": "[1]; Chamber, 25° C., 30% RH (1 week), air tight container for XRPD", "result": "I-3 Form A + 2Theta 17.5°"}, {"measurement": "XRPD", "setting": "[1]; Chamber, 25° C., 40% RH (1 week), air tight container for XRPD", "result": "I-3 Form B"}, {"measurement": "XRPD", "setting": "[1]; Chamber, 25° C., 50% RH (1 week), air tight container for XRPD", "result": "I-3 Form B"}, {"measurement": "XRPD", "setting": "[1]; VH-XRPD, 25° C., 10% RH (2 h)", "result": "I-3 Form A"}, {"measurement": "XRPD", "setting": "[1]; VH-XRPD, 25° C., 39% RH (initial)", "result": "I-3 Form A"}, {"measurement": "XRPD", "setting": "[1]; VH-XRPD, 25° C., 40% RH (2 h)", "result": "I-3 Form A"}, {"measurement": "XRPD", "setting": "[1]; VH-XRPD, 25° C., 50% RH (2 h)", "result": "I-3 Form A + 2Theta 17.3°"}, {"measurement": "XRPD", "setting": "[1]; VH-XRPD, 25° C., 70% RH (2 h)", "result": "I-3 Form B"}]}, {"smiles": "N#Cc1c(-c2cc(NC(=O)c3cc(F)cc(C(F)(F)F)c3)c3c(c2)C(=O)N[C@H]3c2cc(F)ccc2Cl)ccc2ncnn12", "note": "[Compound I-1, (R)-N-(3-(2-chloro-5-fluorophenyl)-6-(5-cyano-[1,2,4]triazolo[1,5-a]pyridin-6-yl)-1-oxoisoindolin-4-yl)-3-fluoro-5-(trifluoromethyl)benzamide]", "values": [{"measurement": "Purity", "setting": "[2]; 10-20° C. MeOH, 1N HCl, pH 4, stir for 20 h", "result": 99.54, "unit": "%"}, {"measurement": "ee %", "setting": "[2]; 10-20° C. MeOH, 1N HCl, pH 4, stir for 20 h, start ee 98.43%", "result": 98.39, "unit": "%"}, {"measurement": "Purity", "setting": "[2]; 10-20° C. MeOH, 1N HCl, pH 4, stir for 68 h", "result": 99.53, "unit": "%"}, {"measurement": "ee %", "setting": "[2]; 10-20° C. MeOH, 1N HCl, pH 4, stir for 68 h, start ee 98.43%", "result": 98.27, "unit": "%"}, {"measurement": "ee %", "setting": "[2]; 20-25° C. MeOH, pH 6-7, stir for 18 h, start ee 98.20%", "result": 97.64, "unit": "%"}, {"measurement": "Purity", "setting": "[2]; 40-50° C. MeOH, 1N HCl, pH 4, stir for 4 h", "result": 99.51, "unit": "%"}, {"measurement": "Purity", "setting": "[2]; 40-50° C. MeOH, 1N HCl, pH 4, stir for 20 h", "result": 99.37, "unit": "%"}, {"measurement": "ee %", "setting": "[2]; 40-50° C. MeOH, 1N HCl, pH 4, stir for 20 h, start ee 98.43%", "result": 98.16, "unit": "%"}, {"measurement": "ee %", "setting": "[2]; 40-50° C. MeOH, 1N HCl, pH 4, stir for 68 h, start ee 98.43%", "result": 97.92, "unit": "%"}, {"measurement": "purity and chiral purity change in solution", "setting": "[2]; 40˜50° C. stirring for 68 h", "result": "slight degrade"}, {"measurement": "ee %", "setting": "[2]; 45-50° C. MeOH, 1N HCl, pH 5-6, stir for 18 h, start ee 98.20%", "result": 98.15, "unit": "%"}, {"measurement": "ee %", "setting": "[2]; 45-50° C. MeOH, pH 6-7, stir for 18 h, start ee 98.20%", "result": 78.95, "unit": "%"}, {"measurement": "ee % before concentration", "setting": "[2]; I-1 after SFC preparation", "result": "ee % 98.43%"}, {"measurement": "ee % before concentration", "setting": "[2]; I-1 from Prep-HPLC", "result": "ee % 98.20%"}, {"measurement": "stability of compound I-1 solution", "setting": "[2]; dependence on pH", "result": "stable when pH at 4˜5"}, {"measurement": "ee % of the product after stirring", "setting": "[2]; over 18 h at 20-25° C. with pH 6-7", "result": 97.64, "unit": "%"}, {"measurement": "ee % of the product after stirring", "setting": "[2]; over 18 h at 45-50° C. with pH 5-6", "result": 98.15, "unit": "%"}, {"measurement": "ee % of the product after stirring", "setting": "[2]; over 18 h at 45-50° C. with pH 6-7", "result": 78.95, "unit": "%"}, {"measurement": "stability after stirring", "setting": "[2]; over 20 h at 10-20° C. with pH 4", "result": "stable"}, {"measurement": "ee % after stirring", "setting": "[2]; over 20 h at 40-50° C. with pH 4, from 98.43%", "result": 98.16, "unit": "%"}, {"measurement": "purity of solid after storage", "setting": "[3]", "result": 99.2, "unit": "%"}, {"measurement": "XRPD peak intensity after dry grinding", "setting": "[4]", "result": "slightly decreased"}, {"measurement": "XRPD", "setting": "[4]; Dry grinding for 1 min", "result": "No form and crystallinity change,"}, {"measurement": "form change on grinding (XRPD)", "setting": "[4]; mortar and pestle 1, 3 and 5 min", "result": "no form change"}, {"measurement": "ee %", "setting": "[5]; Avoid light, basic (KOAc), 1 h", "result": 97.91, "unit": "%"}, {"measurement": "ee %", "setting": "[5]; Avoid light, basic (KOAc), 6 h", "result": 94.79, "unit": "%"}, {"measurement": "ee %", "setting": "[5]; Avoid light, basic (KOAc), 24 h", "result": 80.92, "unit": "%"}, {"measurement": "ee %", "setting": "[5]; Avoid light, basic (KOAc), 96 h", "result": 43.30, "unit": "%"}, {"measurement": "ee %", "setting": "[5]; Avoid light, neutral, 0 h", "result": 98.96, "unit": "%"}, {"measurement": "ee %", "setting": "[5]; Avoid light, neutral, 6 h", "result": 98.94, "unit": "%"}, {"measurement": "ee %", "setting": "[5]; Avoid light, neutral, 24 h", "result": 98.96, "unit": "%"}, {"measurement": "ee %", "setting": "[5]; Avoid light, neutral, 96 h", "result": 98.92, "unit": "%"}, {"measurement": "ee %", "setting": "[5]; Under light, basic (KOAc), 6 h", "result": 94.35, "unit": "%"}, {"measurement": "ee %", "setting": "[5]; Under light, basic (KOAc), 24 h", "result": 76.17, "unit": "%"}, {"measurement": "ee %", "setting": "[5]; Under light, basic (KOAc), 96 h", "result": 30.84, "unit": "%"}, {"measurement": "ee %", "setting": "[5]; Under light, neutral, 6 h", "result": 98.87, "unit": "%"}, {"measurement": "ee %", "setting": "[5]; Under light, neutral, 24 h", "result": 97.15, "unit": "%"}, {"measurement": "ee %", "setting": "[5]; Under light, neutral, 96 h", "result": 81.68, "unit": "%"}, {"measurement": "ee % of product after stirring for 96 h", "setting": "[5]; base system, avoid-light condition", "result": 43.30, "unit": "%"}, {"measurement": "ee % of product after stirring for 96 h", "setting": "[5]; base system, under-light condition", "result": 30.84, "unit": "%"}, {"measurement": "ee % of product after stirring for 96 h", "setting": "[5]; neutral system, avoid-light condition", "result": "almost unchanged"}, {"measurement": "ee % of product after stirring for 96 h", "setting": "[5]; neutral system, under-light condition", "result": 81.68, "unit": "%"}, {"measurement": "form change on granulation simulation (XRPD)", "setting": "[6]; ethanol and water", "result": "no form change"}, {"measurement": "XRPD", "setting": "[6]; granulation simulation with Ethanol", "result": "No form and crystallinity change"}, {"measurement": "XRPD", "setting": "[6]; granulation simulation with water", "result": "No form and crystallinity change"}]}]}
